“Also recorded” adds a separate entry of the source.
Assays:
1H NMRD profiles = assay type: physicochemical; conditions: 0.01 to 80 MHz, pH 6.9
Protocol: Both the longitudinal and transverse relaxation times were measured in human serum (BioreclamationIVT, Cat #HMSRM-M) to reflect the efficiency of the Mn(II) based chelates in an environment close to physiological. The relaxivity assessment was carried out at a concentration ranging from 5 to 0 mM Mn(II), at 40° C. using a Minispec Mq benchtop NMR relaxometer (Bruker Instruments, Rheinstetten, Germany) operating at 60 MHz (1.4 T) with an inversion recovery pulse sequence. The longitudinal and transverse relaxivities of the complexes (e.g., r1 and r2 respectively) were calculated by plotting the reciprocal of their relaxation time versus the manganese concentration as determined via ICP-MS (Spectro Arcos FHS12, S/N 10003910 or S/N 12006120) for each Mn(II) based chelates. The dependence of T1 by B0 (i.e., magnetic field) applied was assessed via the acquisition of ^1H Nuclear Magnetic Relaxation Dispersion (NMRD) profiles. […] The temperature was monitored by a VTC91 temperature control unit and maintained by a gas flow. The temperature was determined by previous calibration with a Pt resistance temperature probe. High field relaxivities were measured on a Bruker AVANCE NMR spectrometer at 400 MHz. […]

[1] = Dissociation kinetics via Cu2+ transmetallation (UV-Vis absorbance); assay type: physicochemical; conditions: pH = 5.0, CCu2+ 0.004 M, 25° C., 0.2 mM chelate

Compound | 1H NMRD profile (1H NMRD profiles) | kobs1 [1]
CN1CCN2Cc3cccc(n3)CN(CC1)C(CCC(=O)N(C)C[C@H](O)[C@@H](O)[C@H](O)[C@H](O)CO)C(=O)[O][Mn][O]C(=O)C2CCC(=O)N(C)C[C@H](O)[C@@H](O)[C@H](O)[C@H](O)CO (stereo partly drawn) [Mn Chelate 4] | only one dispersion in the profile around 1 MHz; also recorded: small r1 hump in the frequency region between 60 and 80 MHz | 
CN1CCN2CC(=O)[O][Mn][O]C(=O)CN(CC1)Cc1cccc(n1)C2 [Prior Art Mn Chelate, reference compound] | only one dispersion in the profile around 1 MHz | 0.032 min⁻¹
